# According to publication PMC10006169, “A phase I trial of LXS196, a protein kinase C (PKC) inhibitor, for metastatic uveal melanoma” (British Journal of Cancer, 2023):
# Where two headings read alike, the source gives them in different places.
# Assay: Plasma pharmacokinetics (LC-MS/MS)
# Assay type: in vivo, human
# Conditions: for AUC(0-inf) / half-life / AUC(0-t) / Cmax: human, plasma, oral, 100 mg, C1D1, 100 mg QD
# Experimental: In the dose escalation part of the study, PK samples were collected at various pre- and post-dose time points on C1D1, D2, D3, D15 and D16. Drug concentrations were assessed using a validated liquid chromatography-tandem mass spectrometry assay.
compound,measurement,setting,value
CC1(N)CCN(c2cccnc2NC(=O)c2nc(-c3ncccc3C(F)(F)F)cnc2N)CC1 [LXS196],Increase in exposure (AUC0–t and Cmax) with dose,"C1D1 and D15, QD and BID",under-proportional
same,"Racc (accumulation ratio), Geo-mean","C1D15, 100 mg QD, n=2",1.2
same,"Racc (accumulation ratio), Mean (SD)","C1D15, 100 mg QD, n=2",1.27 (0.570)
same,"Racc (accumulation ratio), Median (Min, max)","C1D15, 100 mg QD, n=2","1.27 (0.867, 1.67)"
same,"Cmin, Geo-mean","C1D15, 100 mg QD, n=3",137 ng/mL
same,"Cmin, Mean (SD)","C1D15, 100 mg QD, n=3",144 (58.0) ng/mL
same,"Cmin, Geo-mean","C1D15, 200 mg BID, n=5",705 ng/mL
same,"Cmin, Mean (SD)","C1D15, 200 mg BID, n=5",787 (376) ng/mL
same,"Racc (accumulation ratio), Geo-mean","C1D15, 200 mg BID, n=5",0.989
same,"Racc (accumulation ratio), Mean (SD)","C1D15, 200 mg BID, n=5",1.11 (0.611)
same,"Racc (accumulation ratio), Median (Min, max)","C1D15, 200 mg BID, n=5","0.852 (0.539, 2.00)"
same,"Racc (accumulation ratio), Geo-mean","C1D15, 200 mg QD, n=2",0.743
same,"Racc (accumulation ratio), Mean (SD)","C1D15, 200 mg QD, n=2",0.750 (0.145)
same,"Racc (accumulation ratio), Median (Min, max)","C1D15, 200 mg QD, n=2","0.75 (0.647, 0.852)"
same,"Cmin, Geo-mean","C1D15, 200 mg QD, n=3",134 ng/mL
same,"Cmin, Mean (SD)","C1D15, 200 mg QD, n=3",143 (59.2) ng/mL
same,"Racc (accumulation ratio), Geo-mean","C1D15, 300 mg BID, n=12",1.09
same,"Racc (accumulation ratio), Mean (SD)","C1D15, 300 mg BID, n=12",1.15 (0.403)
same,"Racc (accumulation ratio), Median (Min, max)","C1D15, 300 mg BID, n=12","1.07 (0.549, 1.98)"
same,"Cmin, Geo-mean","C1D15, 300 mg BID, n=17",912 ng/mL
same,"Cmin, Mean (SD)","C1D15, 300 mg BID, n=17",1040 (462) ng/mL
same,"Cmin, Median (Min, max)","C1D15, 300 mg BID, n=17","1070 (155, 2100) ng/mL"
same,"Racc (accumulation ratio), Geo-mean","C1D15, 300 mg QD, n=13",0.895
same,"Racc (accumulation ratio), Mean (SD)","C1D15, 300 mg QD, n=13",0.934 (0.307)
same,"Racc (accumulation ratio), Median (Min, max)","C1D15, 300 mg QD, n=13","0.838 (0.577, 1.72)"
same,"Cmin, Geo-mean","C1D15, 300 mg QD, n=14",344 ng/mL
same,"Cmin, Mean (SD)","C1D15, 300 mg QD, n=14",426 (319) ng/mL
same,"Racc (accumulation ratio), Geo-mean","C1D15, 400 mg BID, n=3",0.721
same,"Racc (accumulation ratio), Mean (SD)","C1D15, 400 mg BID, n=3",0.738 (0.204)
same,"Racc (accumulation ratio), Median (Min, max)","C1D15, 400 mg BID, n=3","0.643 (0.599, 0.972)"
same,"Cmin, Geo-mean","C1D15, 400 mg BID, n=4",627 ng/mL
same,"Cmin, Mean (SD)","C1D15, 400 mg BID, n=4",647 (194) ng/mL
same,"Cmin, Median (Min, max)","C1D15, 400 mg BID, n=4","608 (464, 909) ng/mL"
same,"Racc (accumulation ratio), Geo-mean","C1D15, 500 mg QD, n=8",0.767
same,"Racc (accumulation ratio), Mean (SD)","C1D15, 500 mg QD, n=8",0.793 (0.214)
same,"Racc (accumulation ratio), Median (Min, max)","C1D15, 500 mg QD, n=8","0.768 (0.484, 1.11)"
same,"Cmin, Geo-mean","C1D15, 500 mg QD, n=9",622 ng/mL
same,"Cmin, Mean (SD)","C1D15, 500 mg QD, n=9",660 (234) ng/mL
same,"Cmin, Geo-mean","C1D15, 1000 mg QD, n=2",673 ng/mL
same,"Cmin, Mean (SD)","C1D15, 1000 mg QD, n=2",674 (10.6) ng/mL
same,"Racc (accumulation ratio), Geo-mean","C1D15, 1000 mg QD, n=2",0.709
same,"Racc (accumulation ratio), Mean (SD)","C1D15, 1000 mg QD, n=2",0.718 (0.161)
same,"Racc (accumulation ratio), Median (Min, max)","C1D15, 1000 mg QD, n=2","0.718 (0.604, 0.832)"
same,PK variability (CV% for Cmax and AUC0–t),between-patient,moderate
same,AUC(0-inf),"n=2, read-out: AUCinf, Geo-mean",8560 ng·h/mL
same,AUC(0-inf),"n=2, read-out: AUCinf, Mean (SD)",8640 ng·h/mL
same,AUC(0-inf),"n=2, read-out: AUCinf, Median (Min, max)",8640 ng·h/mL
same,half-life,"n=2, read-out: T1/2, Geo-mean (converted)",8.43 h
same,half-life,"n=2, read-out: T1/2, Mean (SD) (converted)",8.49 h
same,half-life,"n=2, read-out: T1/2, Median (Min, max) (converted)",8.49 h
same,AUC(0-t),"n=3, read-out: AUC0-t, Geo-mean",8440 ng·h/mL
same,AUC(0-t),"n=3, read-out: AUC0-t, Mean (SD)",8670 ng·h/mL
same,AUC(0-t),"n=3, read-out: AUC0-t, Median (Min, max)",8020 ng·h/mL
same,Cmax,"n=3, read-out: Cmax, Geo-mean",774 ng/mL
same,Cmax,"n=3, read-out: Cmax, Mean (SD)",776 ng/mL
same,Cmax,"n=3, read-out: Cmax, Median (Min, max)",811 ng/mL
